Results: PubChem BioAssay AID256 (DTP/NCI, 2004)
Several values for one entry are separate records, joined by “and”; a condition that tells them apart may be missing. Identical values can stand only once. Toxic doses and inconclusive results are not listed. The calls were made as follows: active = survival T/C of 150% or more; inactive = T/C below 125% in these data.

Tested on: CD2F1 mice, L1210 leukemia ip, survival T/C
Test: NCI In Vivo Anticancer Drug Screen. Data for tumor model L1210 Leukemia (intraperitoneal) in CD2F1 (CDF1) mice
Settings: higher = longer survival
Method in brief: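 Each value reflects a quotient of treated over vehicle control outcomes in mice with a transplanted tumor.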

[1] = endpoint: mean survival time, dose: 100.0 mg/kg/injection, schedule: Q01DX009 (ip), vehicle: saline with Tween-80
[2] = endpoint: mean survival time, dose: 100.0 mg/kg/injection, schedule: Q04DX003 (ip), vehicle: saline with Tween-80
[3] = endpoint: mean survival time, dose: 200.0 mg/kg/injection, schedule: Q01DX009 (ip), vehicle: saline with Tween-80
[4] = endpoint: mean survival time, dose: 200.0 mg/kg/injection, schedule: Q04DX003 (ip), vehicle: saline with Tween-80
[5] = endpoint: mean survival time, dose: 400.0 mg/kg/injection, schedule: Q04DX003 (ip), vehicle: saline with Tween-80
[6] = endpoint: mean survival time, dose: 100.0 mg/kg/injection, schedule: Q01DX001 (ip), vehicle: saline with Tween-80
[7] = endpoint: mean survival time, dose: 200.0 mg/kg/injection, schedule: Q01DX001 (ip), vehicle: saline with Tween-80
[8] = endpoint: mean survival time, dose: 400.0 mg/kg/injection, schedule: Q01DX001 (ip), vehicle: saline with Tween-80
[9] = endpoint: mean survival time, dose: 100.0 mg/kg/injection, schedule: Q04DX002 (ip), vehicle: saline with Tween-80
[10] = endpoint: mean survival time, dose: 200.0 mg/kg/injection, schedule: Q04DX002 (ip), vehicle: saline with Tween-80
[11] = endpoint: mean survival time, dose: 400.0 mg/kg/injection, schedule: Q04DX002 (ip), vehicle: saline with Tween-80
[12] = endpoint: mean survival time, dose: 50.0 mg/kg/injection, schedule: Q01DX009 (ip), vehicle: saline with Tween-80
[13] = endpoint: mean survival time, dose: 400.0 mg/kg/injection, schedule: Q01DX009 (ip), vehicle: saline with Tween-80
[14] = endpoint: mean survival time, dose: 100.0 mg/kg/injection, schedule: Q04DX002 (ip), vehicle: saline
[15] = endpoint: mean survival time, dose: 100.0 mg/kg/injection, schedule: Q04DX003 (ip), vehicle: saline
[16] = endpoint: mean survival time, dose: 200.0 mg/kg/injection, schedule: Q04DX003 (ip), vehicle: saline

Measured: T/C

CO[C@H](/C(C)=C/C=C/C(C)=C/c1coc(C)n1)[C@H](C)[C@H]1C[C@@H](O)[C@@]2(C)O[C@H]2/C=C/[C@@H](C)[C@@H]2C[C@@H](CC(=O)O2)C[C@H]2O[C@@H]2C(=O)O1
inactive: endpoint: median survival time, dose: 0.5 mg/kg/injection, schedule: Q01DX009 (ip), vehicle: Klucel (hydroxypropylcellulose) (HPC) 112 % of control | endpoint: median survival time, dose: 20.0 micrograms/kg/injection, schedule: Q01DX009 (ip), vehicle: Klucel (hydroxypropylcellulose) (HPC) 114 % of control | endpoint: median survival time, dose: 40.0 micrograms/kg/injection, schedule: Q01DX009 (ip), vehicle: Klucel (hydroxypropylcellulose) (HPC) 123 % of control and 104 % of control | endpoint: median survival time, dose: 80.0 micrograms/kg/injection, schedule: Q01DX009 (ip), vehicle: Klucel (hydroxypropylcellulose) (HPC) 116 % of control | endpoint: median survival time, dose: 160.0 micrograms/kg/injection, schedule: Q01DX009 (ip), vehicle: Klucel (hydroxypropylcellulose) (HPC) 114 % of control

Nc1cccc(CCCCc2ccc(Cl)c(S(=O)(=O)F)c2)c1
inactive: [1] 94 % of control | [2] 106 % of control | [3] 97 % of control | [4] 106 % of control | [5] 108 % of control

CC(=O)CC(=O)c1ccccc1.CC(=O)CC(=O)c1ccccc1.[Cl][Sn][Cl]
inactive: [6] 92 % of control | [7] 100 % of control | [8] 107 % of control

CCCN=C(N)C(N)=NCCC (tested in a mixture with another compound)
inactive: endpoint: mean survival time, dose: 100.0 mg/kg/injection, schedule: Q04DX002 (ip), vehicle: other 106 % of control | [9] 95 % of control | endpoint: mean survival time, dose: 200.0 mg/kg/injection, schedule: Q04DX002 (ip), vehicle: other 103 % of control | [10] 100 % of control | endpoint: mean survival time, dose: 400.0 mg/kg/injection, schedule: Q04DX002 (ip), vehicle: other 91 % of control | [11] 91 % of control

C/C=C1\C[C@@H]2C(OC)Nc3cc(O)c(OC)cc3C(=O)N2C1 (stereo partly drawn)
inactive: endpoint: mean survival time, dose: 0.03 mg/kg/injection, schedule: Q01DX009 (ip), vehicle: saline 103 % of control | endpoint: mean survival time, dose: 0.03 mg/kg/injection, schedule: Q01DX009 (ip), vehicle: suspension in saline 102 % of control | endpoint: mean survival time, dose: 0.06 mg/kg/injection, schedule: Q01DX009 (ip), vehicle: saline 104 % of control | endpoint: mean survival time, dose: 0.06 mg/kg/injection, schedule: Q01DX009 (ip), vehicle: suspension in saline 101 % of control | endpoint: mean survival time, dose: 0.12 mg/kg/injection, schedule: Q01DX009 (ip), vehicle: saline 109 % of control | endpoint: mean survival time, dose: 0.12 mg/kg/injection, schedule: Q01DX009 (ip), vehicle: suspension in saline 108 % of control | endpoint: mean survival time, dose: 0.25 mg/kg/injection, schedule: Q01DX009 (ip), vehicle: saline 106 % of control | endpoint: mean survival time, dose: 0.25 mg/kg/injection, schedule: Q01DX009 (ip), vehicle: suspension in saline 120 % of control | endpoint: mean survival time, dose: 0.5 mg/kg/injection, schedule: Q01DX009 (ip), vehicle: saline 118 % of control | endpoint: mean survival time, dose: 0.5 mg/kg/injection, schedule: Q01DX009 (ip), vehicle: suspension in saline 123 % of control | endpoint: mean survival time, dose: 0.75 mg/kg/injection, schedule: Q04DX002 (ip), vehicle: saline 106 % of control | endpoint: mean survival time, dose: 1.0 mg/kg/injection, schedule: Q01DX009 (ip), vehicle: saline 110 % of control | endpoint: mean survival time, dose: 1.0 mg/kg/injection, schedule: Q01DX009 (ip), vehicle: suspension in saline 92 % of control | endpoint: mean survival time, dose: 1.5 mg/kg/injection, schedule: Q04DX002 (ip), vehicle: saline 114 % of control

CN(CSc1ccc(Cl)cc1)c1ccccc1
inactive: [12] 96 % of control | [1] 96 % of control | [3] 96 % of control

CC(=O)C(c1ccccc1)C(c1ccccc1)P(=O)(c1ccccc1)c1ccccc1 (stereo not drawn)
inactive: [1] 87 % of control | [2] 97 % of control | [3] 90 % of control | [4] 94 % of control | [13] 96 % of control | [5] 87 % of control

O=C(Nc1ccc(Nc2ccccc2)cc1)Nc1cc([N+](=O)[O-])ccc1Cl
inactive: endpoint: mean survival time, dose: 50.0 mg/kg/injection, schedule: Q01DX001 (ip), vehicle: saline with Tween-80 92 % of control | [6] 86 % of control and 90 % of control | [1] 91 % of control and 98 % of control | [9] 93 % of control and 100 % of control | [2] 87 % of control | [7] 90 % of control | [3] 100 % of control and 109 % of control | [10] 91 % of control and 92 % of control | [4] 95 % of control | [8] 91 % of control | [13] 103 % of control and 111 % of control | [11] 92 % of control and 98 % of control | [5] 98 % of control

CN(C)CC(N)C(=O)O (stereo not drawn)
inactive: endpoint: mean survival time, dose: 50.0 mg/kg/injection, schedule: Q04DX002 (ip), vehicle: saline 89 % of control | [14] 92 % of control

CC(=O)C1=C(C)NC(C)=C(C(C)=O)C1c1ccccc1
inactive: [1] 103 % of control | [3] 107 % of control | [13] 107 % of control

CCC(C)(O)C(C)N(C)C1CCCCC1 (stereo not drawn)
inactive: [15] 97 % of control and 100 % of control | [16] 100 % of control and 97 % of control

COC(=O)C1(C)CCOC1=O (stereo not drawn)
inactive: [14] 107 % of control | endpoint: mean survival time, dose: 200.0 mg/kg/injection, schedule: Q04DX002 (ip), vehicle: saline 98 % of control | endpoint: mean survival time, dose: 400.0 mg/kg/injection, schedule: Q04DX002 (ip), vehicle: saline 102 % of control

NC(=Nc1ccc(Cl)cc1)/N=C(/N)N1CCN(/C(N)=N/C(N)=Nc2ccc(Cl)cc2)CC1
inactive: [12] 104 % of control | [2] 98 % of control | [4] 98 % of control

COc1ccc2[nH]c3c(C)c4cc[n+](C)cc4c(C)c3c2c1
inactive: endpoint: mean survival time, dose: 3.13 mg/kg/injection, schedule: Q01DX009 (ip), vehicle: saline 120 % of control | endpoint: mean survival time, dose: 6.25 mg/kg/injection, schedule: Q01DX009 (ip), vehicle: saline with Tween-80 122 % of control | endpoint: mean survival time, dose: 6.25 mg/kg/injection, schedule: Q01DX009 (ip), vehicle: saline 120 % of control | endpoint: mean survival time, dose: 6.25 mg/kg/injection, schedule: Q04DX003 (ip), vehicle: saline with Tween-80 105 % of control | endpoint: mean survival time, dose: 12.5 mg/kg/injection, schedule: Q01DX009 (ip), vehicle: saline with Tween-80 87 % of control | endpoint: mean survival time, dose: 12.5 mg/kg/injection, schedule: Q01DX009 (ip), vehicle: saline 110 % of control | endpoint: mean survival time, dose: 12.5 mg/kg/injection, schedule: Q04DX003 (ip), vehicle: saline with Tween-80 108 % of control | endpoint: mean survival time, dose: 25.0 mg/kg/injection, schedule: Q04DX003 (ip), vehicle: saline sonified 116 % of control | endpoint: mean survival time, dose: 25.0 mg/kg/injection, schedule: Q04DX003 (ip), vehicle: saline with Tween-80 101 % of control | endpoint: mean survival time, dose: 37.5 mg/kg/injection, schedule: Q04DX003 (ip), vehicle: saline sonified 86 % of control

CC(=O)c1c(C)cc(=O)[nH]c1C
inactive: [9] 96 % of control | [10] 96 % of control | [11] 100 % of control

CC(C)CC([N+](C)(C)C)P(=O)([O-])O (stereo not drawn)
inactive: [15] 101 % of control | [16] 95 % of control | endpoint: mean survival time, dose: 400.0 mg/kg/injection, schedule: Q04DX003 (ip), vehicle: saline 98 % of control

CC(C(=O)c1ccccc1)N(C)C (stereo not drawn)
inactive: [15] 100 % of control

CCCCCCCCCCCCCCCCCCc1ccc(O)cc1O
inactive: [1] 96 % of control | [3] 101 % of control | [13] 104 % of control
